Test results from patent publication US10125095B2, “Abscisic acid derivative” (NATIONAL UNIVERSITY CORPORATION SHIZUOKA UNIVERSITY, priority 2014, dated 2018).

How the values were obtained:
[1] = target: T1, PYL9 (Arabidopsis thaliana, UniProt Q84MC7); assay: Protein dephosphorylation enzyme activity test, PYL9; type: biochemical, thale cress; conditions: control = 100%
T1 construct: 6xHis (N); made in house; host or cells: Escherichia coli BL21-codonplus(DE3)-RIPL (PYL); BL21(DE3)pLysS (HAB1)
T1 sequence (Q84MC7 1-187): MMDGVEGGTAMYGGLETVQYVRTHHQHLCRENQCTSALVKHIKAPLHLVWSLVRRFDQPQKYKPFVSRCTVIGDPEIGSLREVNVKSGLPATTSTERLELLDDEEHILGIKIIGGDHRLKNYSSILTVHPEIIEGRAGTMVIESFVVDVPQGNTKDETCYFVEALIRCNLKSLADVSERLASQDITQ
Description: (§1) A plasmid (pGex-2T-GST-HAB1 or pET28-6×His-PYL) encoded with PYR/PYL/RCAR proteins (PYL, abscisic acid receptor) or protein dephosphorylation enzyme HAB1 of thale cress was transformed to Escherichia coli (HAB1:BL21(DE3)pLysS, PYL:BL21-codonplus(DE3)-RIPL). Isopropyl-β-thiogalactopyranoside was added to the culture broth, which had been subjected to pre-culture (30° C., 180 rpm, 15 hours) and main culture (30° C., 180 rpm, 4 hours), and the protein-expressed (16° C., 150 rpm, 18 hours) crude enzyme solution was purified using FPLC thereby preparing the recombined PYL (PYR1, PYL1-6, PYL8-10) and HAB1. β-Mercaptoethanol, a manganese chloride aqueous solution, HAB1, PYL, a solution of the sample in dimethylsulfoxide and ultrapure water were sequentially added to a 96-well plate, allowed to stand at 22° C. for 30 minutes. Subsequently p-nitrophenylphosphate, which is the artificial substrate of HAB1, was added thereto to start the reaction, and the plate was placed in a microplate reader (TECAN, Infinite™ N200 NanoQuant). The absorbance at 405 nm due to p-nitrophenol, which is the hydrolysate of p-nitrophenylphosphate, was measured 3 minutes later from the reaction initiation, and HAB1 activity was calculated by the following formula (2). Note that the fraction to which only dimethylsulfoxide was added was considered to be the control and the activity thereof was defined as 100%. […] HAB1 specific activity (%)=Absorbance when sample was added/Absorbance of control×100 (2)

[2] = test system: thale cress (Arabidopsis thaliana, Col-0) seedlings; assay: Thale cress growth test; type: in vivo; conditions: sprayed once a day, three weeks' culture
Description: Seeds of thale cress (Arabidopsis thaliana, Col-0) were sequentially immersed for 1 minute respectively in 500 μL of an aqueous solution of 5% bleach+1% SDS, 500 μL of a 70% aqueous solution of ethanol and 500 μL of a 70% aqueous solution of ethanol, washed five times in 1 mL of sterilized water, and then suspended in a 0.1% aqueous solution of agar. 25 mL each of germination medium (containing ½ MS medium inorganic salts) sterilized in an autoclave was added to a sterilized plastic petri dish, in which 60 to 80 seeds suspended in the 0.1% aqueous solution of agar were planted and, in a dark place, the seeds were vernilized at 4° C. for 3 days. The seeds were cultured at 22° C. under continuous light for 10 days. 40 g […] of sterilized soil (organic culture soil:vermiculite=1:1) was added to a plastic pot (50 mm×50 mm×50 mm, 35 mm bottom surface×35 mm height). Six plastic pots thus provided were placed in a 3000 mL-tray, 300 mL (depth 10 mm) of an aqueous solution of 1000-fold diluted HYPONeX (tradename (registered trademark), product of HYPONeX JAPAN CORP., LTD.) was added thereto and five roots each of thale cress seedlings were transplanted from the plastic petri dish. The seedlings were cultured at 22° C. under conditions of 16 hour light period-8 hour dark period, and 1 mL of an aqueous solution (prepared so as the final concentration of the compound of Example 7 to be 50 μM) of 0.1% DMSO (containing the compound of Example 7)+0.1% Approach BI (tradename (registered trademark), product of Kao Corporation) was sprayed once a day. Further, 300 mL of an aqueous solution of 2000-fold diluted HYPONeX was added every week. The same treatment as above was carried out using the compound of Comparative Example 1. Note that the seedlings, to which 1 mL of an aqueous solution of 0.1% DMSO+0.1% Approach BI without containing the above compound was sprayed once a day, were used as controls. […]

[3] = target: T2, HAB1 (Arabidopsis thaliana, UniProt Q9CAJ0); assay: Protein dephosphorylation enzyme activity test, no receptor; type: biochemical, thale cress; conditions: control = 100%
T2 construct: GST (N); made in house; host or cells: Escherichia coli BL21(DE3)pLysS
T2 sequence (Q9CAJ0 23-511): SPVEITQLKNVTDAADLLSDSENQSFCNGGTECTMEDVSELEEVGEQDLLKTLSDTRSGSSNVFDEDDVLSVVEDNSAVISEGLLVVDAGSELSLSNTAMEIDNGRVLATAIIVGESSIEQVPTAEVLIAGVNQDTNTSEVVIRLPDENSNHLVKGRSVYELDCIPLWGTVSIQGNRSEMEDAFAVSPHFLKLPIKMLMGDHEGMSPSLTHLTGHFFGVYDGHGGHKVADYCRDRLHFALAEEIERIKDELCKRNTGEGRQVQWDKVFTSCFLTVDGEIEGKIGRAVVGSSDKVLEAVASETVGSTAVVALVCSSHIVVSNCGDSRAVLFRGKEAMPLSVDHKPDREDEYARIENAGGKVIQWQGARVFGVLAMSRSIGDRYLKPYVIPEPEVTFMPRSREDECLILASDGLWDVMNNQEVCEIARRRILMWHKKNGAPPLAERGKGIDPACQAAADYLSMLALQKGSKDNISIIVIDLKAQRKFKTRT
Description: as §1

[4] = test system: bok choy (Brassica rapa var. chinensis) seeds; assay: Bok choy seed germination test; type: in vivo; conditions: co-applied with ABA
[5] = test system: lettuce (Lactuca saliva) seeds; assay: Lettuce seed germination test; type: in vivo; conditions: co-applied with ABA

Question: What does the source list for `CC1=CC(=O)CC(C)(C)[C@@]1(O)/C=C/C(C)=C\C(=O)O` [ABA, abscisic acid]?
Answer: HAB1 Specific activity (%) PYL9 ([1]; sample alone): 31%; Growth of thale cress ([2]; only ABA, 5 μM): the growth of thale cress was notably suppressed; HAB1 Specific activity (%) None ([3]; sample alone): 97%

Question: Which results are given for `CC1=C[C@@H](OCC#Cc2ccccc2)CC(C)(C)[C@@]1(O)/C=C/C(C)=C\C(=O)O` [Example 1, (2Z,4E)-5-((1S,4S)-1-hydroxy-2,6,6-trimethyl-4-((3-phenylprop-2-yn-1-yl)oxy)cyclohex-2-en-1-yl)-3-methylpenta-2,4-dienoic acid]?
Answer: Recovery of seed germination rate decreased by ABA [4]: recovered the seed germination rates once decreased by ABA; HAB1 Specific activity (%) PYL9 ([1]; ABA + compound): 90%; HAB1 Specific activity (%) PYL9 ([1]; sample alone): 111%; HAB1 Specific activity (%) None ([3]; ABA + compound): 81%; HAB1 Specific activity (%) None ([3]; sample alone): 83.8%; Recovery of seed germination rate decreased by ABA [5]: recovered the seed germination rates once decreased by ABA

Question: For `CC1=C[C@@H](OCC#Cc2ccc(C)cc2)CC(C)(C)[C@@]1(O)/C=C/C(C)=C\C(=O)O` [Example 7], which “Growth suppression effect of ABA on thale cress” value ([2]; 50 μM compound co-applied with 5 μM ABA) is on record?
Answer: the growth suppression effect by ABA was notably improved and the thale cress growth was recovered to the same extent as the controls
